Results taken from publication PMC12584752, “Covalent fragment screening to inhibit the E3 ligase activity of bacterial NEL enzymes SspH1 and SspH2” (RSC Chemical Biology, 2025).

Tests used:
HEK293T cells = assay: Cell toxicity observed during in-cell treatment; format: cell-based, human; settings: 50 μM, four hours
Method: We next interrogated whether compounds 6 or 7 could engage SspH1 or SspH2 in live human cells. To simplify experimental setup, we opted for NEL overexpression in mammalian cells, coupled with chemoproteomics, over a Salmonella infection-based assay. SspH1 or SspH2 were transiently expressed in HEK293T cells (Fig. S6), and cells treated with 50 μM of either compound 6 or 7 for four hours. […] Following cell lysis, we again utilized an IA-DTB chemoproteomics workflow to assess cysteine engagement.[52] Peptides engaging with compound 6 were identified with an average log2 CR ≤ −1 and P-value ≤0.05 when compared to DMSO controls (Fig. 5C and D). […] However, none of these included catalytic cysteines-containing peptides of HECT or RBR E3 ligases, nor of DUBs. Therefore, compound 6 provides a useful starting point for medicinal chemistry campaigns to design potent and specific tool compounds for SspH1 and SspH2.
All cells were grown in DMEM media (Gibco, 41966-029) supplemented with FBS (ThermoFisher, A5256701) and Pen/Strep (Gibco, 15140-122) at 37 °C with 5% CO2. SspH1 (aa 1–700) and SspH2 (aa 1–786) genes were cloned separately into […] plasmids. HEK293T cells were seeded in 6-well plates at a density of 2 × 10^5 cells per well. […] Protein concentrations were measured using a Rapid BCA Gold Protein Assay Kit (Thermo Scientific, A53226) and diluted to 1 mg mL^−1 with lysis buffer. […]

[1] = biological target: T1, SspH1 expressed in HEK293T cells (Salmonella typhimurium, UniProt D0ZVG2); assay: In cellulo target engagement, IA-DTB chemoproteomics; format: cell-based; settings: live HEK293T cells, 50 μM, four hours
T1 construct: SspH1 (aa 1–700) and SspH2 (aa 1–786) genes were cloned separately; expressed in transfected cells; host or cells: HEK293T
Method: (§1) Fig. 5 Characterisation of protein interactions by compounds 6 and 7. (A) SspH1 and SspH2 catalytic cysteine labelling with compound 6 (100–3.125 μM, 4 hours) in HEK293T lysate spiked with recombinant SspH1 and SspH2. Data are presented as mean ± SEM, n = 4. The curves were fitted with GraphPad Prism 10 using four parameter nonlinear regression with baseline correction to DMSO-treated samples. (B) SspH1 and SspH2 catalytic cysteine labelling with compound 7 (100–3.125 μM, 4 hours) in HEK293T lysate spiked with recombinant SspH1 and SspH2. Data are presented as mean ± SEM, n = 4. The curves were fitted with GraphPad Prism 10 using four parameter nonlinear regression with baseline correction to DMSO-treated samples. (C) Volcano plot of IA-DTB competition in SspH1 expressing HEK293T cells treated with compound 6 (50 μM, 4 hours). (D) Volcano plot of IA-DTB competition in SspH2 expressing HEK293T cells treated with compound 6 (50 μM, 4 hours). Data is shown as compared to DMSO treated samples, with competed peptides in the upper left-hand quadrant. […]
(§2) All cells were grown in DMEM media (Gibco, 41966-029) supplemented with FBS (ThermoFisher, A5256701) and Pen/Strep (Gibco, 15140-122) at 37 °C with 5% CO2. […] Protein concentrations were measured using a Rapid BCA Gold Protein Assay Kit (Thermo Scientific, A53226) and diluted to 1 mg mL^−1 with lysis buffer. […]

[2] = biological target: T2, SspH2 expressed in HEK293T cells (Salmonella typhimurium, UniProt D0ZPH9); assay: as above; format: cell-based; settings: live HEK293T cells, 50 μM, four hours
T2 construct: SspH1 (aa 1–700) and SspH2 (aa 1–786) genes were cloned separately; expressed in transfected cells; host or cells: HEK293T
Method: as §1, §2

[3] = test system: mammalian proteins in HEK293T cells; assay: In cellulo IA-DTB chemoproteomics, off-target engagement; format: cell-based, human; settings: live HEK293T cells, 50 μM, four hours
Method: as §1, §2

T1 sequence (D0ZVG2 whole entry, the tested form may be a part): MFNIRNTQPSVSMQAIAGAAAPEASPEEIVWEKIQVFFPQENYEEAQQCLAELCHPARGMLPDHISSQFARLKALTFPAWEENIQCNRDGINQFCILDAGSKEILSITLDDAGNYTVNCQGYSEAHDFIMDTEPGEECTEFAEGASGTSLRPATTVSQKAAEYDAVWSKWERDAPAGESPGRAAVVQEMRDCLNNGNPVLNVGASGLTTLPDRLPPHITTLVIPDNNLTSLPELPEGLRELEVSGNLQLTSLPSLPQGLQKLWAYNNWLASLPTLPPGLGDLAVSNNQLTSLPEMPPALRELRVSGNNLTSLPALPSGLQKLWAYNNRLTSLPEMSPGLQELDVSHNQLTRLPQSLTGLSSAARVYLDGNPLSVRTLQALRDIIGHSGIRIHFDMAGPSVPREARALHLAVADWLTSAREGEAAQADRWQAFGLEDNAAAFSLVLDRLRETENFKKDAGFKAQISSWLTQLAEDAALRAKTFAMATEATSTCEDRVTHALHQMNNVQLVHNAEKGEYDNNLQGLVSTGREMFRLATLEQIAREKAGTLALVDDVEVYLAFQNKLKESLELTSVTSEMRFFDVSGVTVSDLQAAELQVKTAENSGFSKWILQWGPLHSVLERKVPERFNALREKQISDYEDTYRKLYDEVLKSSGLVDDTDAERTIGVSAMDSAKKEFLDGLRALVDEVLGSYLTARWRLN
T2 sequence (D0ZPH9 1-786): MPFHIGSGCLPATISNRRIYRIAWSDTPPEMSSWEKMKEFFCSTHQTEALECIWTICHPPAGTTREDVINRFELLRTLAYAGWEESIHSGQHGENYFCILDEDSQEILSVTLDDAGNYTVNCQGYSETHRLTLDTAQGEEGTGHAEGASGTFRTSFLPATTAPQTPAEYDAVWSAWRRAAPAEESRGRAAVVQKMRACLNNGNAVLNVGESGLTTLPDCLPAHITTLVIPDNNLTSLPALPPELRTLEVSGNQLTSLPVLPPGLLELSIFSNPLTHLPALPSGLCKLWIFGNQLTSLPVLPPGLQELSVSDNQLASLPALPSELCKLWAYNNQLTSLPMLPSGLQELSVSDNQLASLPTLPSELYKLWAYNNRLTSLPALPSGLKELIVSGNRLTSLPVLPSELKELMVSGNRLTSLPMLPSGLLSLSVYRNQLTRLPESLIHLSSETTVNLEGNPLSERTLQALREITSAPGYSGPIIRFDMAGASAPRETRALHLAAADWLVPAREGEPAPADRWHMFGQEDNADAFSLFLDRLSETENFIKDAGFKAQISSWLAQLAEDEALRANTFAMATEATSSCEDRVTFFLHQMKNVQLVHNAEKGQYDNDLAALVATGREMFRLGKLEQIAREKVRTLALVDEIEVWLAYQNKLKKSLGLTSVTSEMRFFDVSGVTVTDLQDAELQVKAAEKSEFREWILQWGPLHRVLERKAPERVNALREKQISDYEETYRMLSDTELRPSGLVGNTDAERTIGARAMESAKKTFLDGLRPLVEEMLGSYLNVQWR

| SMILES | cell toxicity (HEK293T cells) | competition of IA-DTB labelling of catalytic cysteine C492 peptide of SspH1 [1] | competition of IA-DTB labelling of C580 peptide of SspH2 [2] | engagement of catalytic cysteines-containing peptides of HECT or RBR E3 ligases, or DUBs [3] | engagement of mammalian proteins [3] |
| --- | --- | --- | --- | --- | --- |
| Cl.O=C(CCl)N1CCC(n2c(-c3ccc(C(F)(F)F)cc3)nc3ccccc32)CC1 [compound 7] | significant effects on cell attachment and potential toxicity | – | – | – | – |
| Cc1cc(-c2nc3ccccc3n2C2CCN(C(=O)CCl)CC2)cc(C)c1O.Cl [compound 6] | no apparent cell toxicity | strong competition | strong competition | none | engagement of multiple mammalian proteins |
